# Experimental data as given in patent US20260347338A1, “PYRIMIDINE/PYRIDINE DERIVATIVES OR SALTS THEREOF AND PHARMACEUTICAL COMPOSITIONS COMPRISING THE SAME” (YUHAN CORPORATION, priority 2023, published 2026).
# Where a name gives a salt, the structure may show the parent alone.
# Target: T1, human recombinant HPK1 (Homo sapiens, UniProt Q92918)
# T1 construct: purchased BPS Bioscience
# Assay: Inhibitory activity against human recombinant HPK1 (TR-FRET)
# Format: biochemical
# Details: ULight-p70S6K peptide, ATP at Km, room temperature, 1 hour, 0.32 to 1000 nM compound
# How it was run: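 IC50 classes A–D use 10, 50 and 100 nM cut-offs, derived from TR-FRET signal inhibition relative to DMSO controls. Human recombinant HPK1 phosphorylated ULight-p70S6K peptide at Km ATP for 1 h, room temperature, pH 7.4; test range 0.32–1000 nM final, detection with Eu-labelled antibody after EDTA quench.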
# T1 sequence (Q92918 whole entry): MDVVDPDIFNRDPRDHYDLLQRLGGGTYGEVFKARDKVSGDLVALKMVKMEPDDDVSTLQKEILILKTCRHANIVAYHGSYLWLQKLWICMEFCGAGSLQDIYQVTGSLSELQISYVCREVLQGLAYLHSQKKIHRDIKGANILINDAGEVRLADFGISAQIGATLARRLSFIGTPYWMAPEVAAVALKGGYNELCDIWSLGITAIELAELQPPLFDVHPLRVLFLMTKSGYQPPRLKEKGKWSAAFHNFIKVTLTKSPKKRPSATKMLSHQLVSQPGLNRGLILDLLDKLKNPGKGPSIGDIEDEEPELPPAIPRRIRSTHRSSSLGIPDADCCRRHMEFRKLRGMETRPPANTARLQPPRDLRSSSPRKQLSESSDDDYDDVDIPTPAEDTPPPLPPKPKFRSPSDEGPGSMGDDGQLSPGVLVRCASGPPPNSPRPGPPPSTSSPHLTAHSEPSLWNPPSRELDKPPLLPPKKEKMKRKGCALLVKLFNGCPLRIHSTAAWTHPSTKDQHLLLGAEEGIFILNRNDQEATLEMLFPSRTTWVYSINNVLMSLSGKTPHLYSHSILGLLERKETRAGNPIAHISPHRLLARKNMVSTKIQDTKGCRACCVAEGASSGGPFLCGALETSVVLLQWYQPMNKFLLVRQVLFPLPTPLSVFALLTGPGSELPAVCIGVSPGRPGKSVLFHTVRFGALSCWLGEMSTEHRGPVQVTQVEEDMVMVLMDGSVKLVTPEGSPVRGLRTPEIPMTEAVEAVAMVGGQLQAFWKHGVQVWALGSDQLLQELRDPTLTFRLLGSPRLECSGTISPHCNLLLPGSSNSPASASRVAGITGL
row,Compound,IC50 [nM]
1,"COc1cccc(F)c1-c1nc(Nc2cc(N3CCC[C@H](O)C3)c(C(=O)NC3CC(F)(F)C3)cn2)ccc1[N+](=O)[O-] [Example 198, N-(3,3-difluorocyclobutyl)-6-((6-(2-fluoro-6-methoxyphenyl)-5-nitropyridin-2-yl)amino)-4-((S)-3-hydroxypiperidin-1-yl)nicotinamide]",≤ 10
2,"COc1cccc(F)c1-c1nc(Nc2cc(N3CCC[C@H](O)C3)c(C(=O)N[C@@H]3CC[C@@H](N)C3)cn2)ccc1[N+](=O)[O-] [Example 199, N-((1R,3R)-3-aminocyclopentyl)-6-((6-(2-fluoro-6-methoxyphenyl)-5-nitropyridin-2-yl)amino)-4-((S)-3-hydroxypiperidin-1-yl)nicotinamide hydrochloride]",≤ 10
3,"COc1cccc(F)c1-c1nc(Nc2cc(N3CCC[C@H](O)C3)c(C(=O)N[C@@H]3CC[C@H](N)C3)cn2)ccc1[N+](=O)[O-] [Example 200, N-((1R,3S)-3-aminocyclopentyl)-6-((6-(2-fluoro-6-methoxyphenyl)-5-nitropyridin-2-yl)amino)-4-((S)-3-hydroxypiperidin-1-yl)nicotinamide]",≤ 10
4,"COc1cccc(F)c1-c1nc(Nc2cc(N3CCC[C@H](O)C3)c(C(=O)N[C@@H]3CC[C@@H](O)C3)cn2)ccc1N [Example 201, 6-((5-amino-6-(2-fluoro-6-methoxyphenyl)pyridin-2-yl)amino)-N-((1R,3R)-3-hydroxycyclopentyl)-4-((S)-3-hydroxypiperidin-1-yl)nicotinamide]",≤ 10
5,"COc1cccc(F)c1-c1nc(Nc2cc(N3CCC[C@H](O)C3)c(C(=O)N[C@@H]3CC[C@H](O)C3)cn2)ccc1N [Example 202, 6-((5-amino-6-(2-fluoro-6-methoxyphenyl)pyridin-2-yl)amino)-N-((1R,3S)-3-hydroxycyclopentyl)-4-((S)-3-hydroxypiperidin-1-yl)nicotinamide]",≤ 10
6,"COc1cccc(F)c1-c1nc(Nc2cc(N3CCC[C@H](O)C3)c(C(=O)N[C@@H]3CCN(C)C3)cn2)ccc1[N+](=O)[O-] [Example 203, 6-((6-(2-fluoro-6-methoxyphenyl)-5-nitropyridin-2-yl)amino)-4-((S)-3-hydroxypiperidin-1-yl)-N-((R)-1-methylpyrrolidin-3-yl)nicotinamide]",≤ 10
7,"COc1cccc(F)c1-c1nccc(Nc2cc(N3CC[C@@H](C)[C@H](N)C3)c(-c3cnn(C(F)F)c3)cn2)n1 [Example 204, N-(4-((3S,4R)-3-amino-4-methylpiperidin-1-yl)-5-(1-(difluoromethyl)-1H-pyrazol-4-yl)pyridin-2-yl)-2-(2-fluoro-6-methoxyphenyl)pyrimidin-4-amine hydrochloride]",≤ 10
8,"COc1cccc(F)c1-c1nccc(Nc2cc(N3C[C@@H](C)C[C@H](N)C3)c(-c3cnn(C(F)F)c3)cn2)n1 [Example 205, N-(4-((3S,5S)-3-amino-5-methylpiperidin-1-yl)-5-(1-(difluoromethyl)-1H-pyrazol-4-yl)pyridin-2-yl)-2-(2-fluoro-6-methoxyphenyl)pyrimidin-4-amine hydrochloride]",≤ 10
9,"COc1cccc(F)c1-c1nccc(Nc2cc(N3CCC[C@](C)(N)C3)c(-c3cnn(C(F)F)c3)cn2)n1 [Example 206, (S)-N-(4-(3-amino-3-methylpiperidin-1-yl)-5-(1-(difluoromethyl)-1H-pyrazol-4-yl)pyridin-2-yl)-2-(2-fluoro-6-methoxyphenyl)pyrimidin-4-amine hydrochloride]",≤ 10
10,"COc1cccc(F)c1-c1nccc(Nc2cc(N3CC[C@H](F)[C@H](N)C3)c(-c3cnn(C(F)F)c3)cn2)n1 [Example 207, N-(4-((3R,4S)-3-amino-4-fluoropiperidin-1-yl)-5-(1-(difluoromethyl)-1H-pyrazol-4-yl)pyridin-2-yl)-2-(2-fluoro-6-methoxyphenyl)pyrimidin-4-amine hydrochloride]",≤ 10
11,"COc1cccc(F)c1-c1nccc(Nc2cc(N3CC[C@@H](F)[C@H](N)C3)c(-c3cnn(C(F)F)c3)cn2)n1 [Example 208, N-(4-((3R,4R)-3-amino-4-fluoropiperidin-1-yl)-5-(1-(difluoromethyl)-1H-pyrazol-4-yl)pyridin-2-yl)-2-(2-fluoro-6-methoxyphenyl)pyrimidin-4-amine hydrochloride]",≤ 10
12,"COc1cccc(F)c1-c1nccc(Nc2cc(N3CC[C@@H](O)[C@H](N)C3)c(-c3cnn(C(F)F)c3)cn2)n1 [Example 209, (3R,4R)-3-amino-1-(5-(1-(difluoromethyl)-1H-pyrazol-4-yl)-2-((2-(2-fluoro-6-methoxyphenyl)pyrimidin-4-yl)amino)pyridin-4-yl)piperidin-4-ol hydrochloride]",≤ 10
13,"COc1cc(F)cc(F)c1-c1nccc(Nc2cc(N3C[C@@H](C)C[C@H](N)C3)c(-c3cnn(C(F)F)c3)cn2)n1 [Example 210, N-(4-((3S,5S)-3-amino-5-methylpiperidin-1-yl)-5-(1-(difluoromethyl)-1H-pyrazol-4-yl)pyridin-2-yl)-2-(2,4-difluoro-6-methoxyphenyl)pyrimidin-4-amine hydrochloride]",≤ 10
14,"COc1cc(F)cc(F)c1-c1nccc(Nc2cc(N3CC[C@@H](C)[C@H](N)C3)c(-c3cnn(C(F)F)c3)cn2)n1 [Example 211, N-(4-((3S,4R)-3-amino-4-methylpiperidin-1-yl)-5-(1-(difluoromethyl)-1H-pyrazol-4-yl)pyridin-2-yl)-2-(2,4-difluoro-6-methoxyphenyl)pyrimidin-4-amine hydrochloride]",≤ 10
15,"COc1cc(F)cc(F)c1-c1nccc(Nc2cc(N3CCC[C@](C)(N)C3)c(-c3cnn(C(F)F)c3)cn2)n1 [Example 212, (S)-N-(4-(3-amino-3-methylpiperidin-1-yl)-5-(1-(difluoromethyl)-1H-pyrazol-4-yl)pyridin-2-yl)-2-(2,4-difluoro-6-methoxyphenyl)pyrimidin-4-amine hydrochloride]",≤ 10
16,"COc1cc(F)cc(F)c1-c1nccc(Nc2cc(N3CC[C@@H](O)[C@H](N)C3)c(-c3cnn(C(F)F)c3)cn2)n1 [Example 213, (3R,4R)-3-amino-1-(2-((2-(2,4-difluoro-6-methoxyphenyl)pyrimidin-4-yl)amino)-5-(1-(difluoromethyl)-1H-pyrazol-4-yl)pyridin-4-yl)piperidin-4-ol hydrochloride]",≤ 10
17,"COc1cccc(F)c1-c1nccc(Nc2cc(N(C)C3CCC(O)CC3)c(-c3cnn(C(F)F)c3)cn2)n1 [Example 214, (1S,4S)-4-((5-(1-(difluoromethyl)-1H-pyrazol-4-yl)-2-((2-(2-fluoro-6-methoxyphenyl)pyrimidin-4-yl)amino)pyridin-4-yl)(methyl)amino)cyclohexan-1-ol]",≤ 10
18,"COc1cc(F)cc(F)c1-c1nc(Nc2cc(N3CC[C@@H](C)[C@H](N)C3)c(-c3cnn(C(F)F)c3)cn2)ccc1N [Example 215, N^2-(4-((3S,4R)-3-amino-4-methylpiperidin-1-yl)-5-(1-(difluoromethyl)-1H-pyrazol-4-yl)pyridin-2-yl)-6-(2,4-difluoro-6-methoxyphenyl)pyridin-2,5-diamine hydrochloride]",≤ 10
19,"COc1cc(F)cc(F)c1-c1nc(Nc2cc(N3CC[C@@H](F)[C@H](N)C3)c(-c3cnn(C(F)F)c3)cn2)ccc1N [Example 216, N^2-(4-((3R,4R)-3-amino-4-fluoropiperidin-1-yl)-5-(1-(difluoromethyl)-1H-pyrazol-4-yl)pyridin-2-yl)-6-(2,4-difluoro-6-methoxyphenyl)pyridin-2,5-diamine hydrochloride]",≤ 10
20,"COc1cc(F)cc(F)c1-c1nccc(Nc2cc(N3CCC[C@H](O)C3)c(C#Cc3cnn(C(F)F)c3)cn2)n1 [Example 217, (S)-1-(2-((2-(2,4-difluoro-6-methoxyphenyl)pyrimidin-4-yl)amino)-5-((1-(difluoromethyl)-1H-pyrazol-4-yl)ethynyl)pyridin-4-yl)piperidin-3-ol]",≤ 10
21,"COc1cc(F)cc(F)c1-c1nccc(Nc2cc(N3CCC[C@H](O)C3)c(C#Cc3cnn(C(F)(F)F)c3)cn2)n1 [Example 218, (S)-1-(2-((2-(2,4-difluoro-6-methoxyphenyl)pyrimidin-4-yl)amino)-5-((1-(trifluoromethyl)-1H-pyrazol-4-yl)ethynyl)pyridin-4-yl)piperidin-3-ol]",≤ 10
22,"COc1cc(F)cc(F)c1-c1nccc(Nc2cc(N3CCC[C@H](O)C3)c(C#Cc3cnn(CC(F)F)c3)cn2)n1 [Example 219, (S)-1-(2-((2-(2,4-difluoro-6-methoxyphenyl)pyrimidin-4-yl)amino)-5-((1-(2,2-difluoroethyl)-1H-pyrazol-4-yl)ethynyl)pyridin-4-yl)piperidin-3-ol]",≤ 10
23,"COc1cc(F)cc(F)c1-c1nccc(Nc2cc(N3CCC[C@H](O)C3)c(C#Cc3cnn(CC(F)(F)F)c3)cn2)n1 [Example 220, (S)-1-(2-((2-(2,4-difluoro-6-methoxyphenyl)pyrimidin-4-yl)amino)-5-((1-(2,2,2-trifluoroethyl)-1H-pyrazol-4-yl)ethynyl)pyridin-4-yl)piperidin-3-ol]",≤ 10
24,"COc1cccc(F)c1-c1nc(Nc2cc(N3CCC[C@H](O)C3)c(C#Cc3cnn(CC(F)F)c3)cn2)ccc1[N+](=O)[O-] [Example 221, (3S)-1-(5-((1-(2,2-difluoroethyl)-1H-pyrazol-4-yl)ethynyl)-2-((6-(2-fluoro-6-methoxyphenyl)-5-nitropyridin-2-yl)amino)pyridin-4-yl)piperidin-3-ol]",≤ 10
25,"COc1cccc(F)c1-c1nc(Nc2cc(N3CCC[C@H](O)C3)c(C#Cc3cnn(C(F)F)c3)cn2)ccc1[N+](=O)[O-] [Example 222, (3S)-1-(5-((1-(difluoromethyl)-1H-pyrazol-4-yl)ethynyl)-2-((6-(2-fluoro-6-methoxyphenyl)-5-nitropyridin-2-yl)amino)pyridin-4-yl)piperidin-3-ol]",≤ 10
